Data from publication PMC9196137 (SLAS discovery : advancing life sciences R & D, 2022).

Molecular target: Mcm2–7 complex
Experiment: thermal shift assay
Type: binding, Saccharomyces cerevisiae

With CNC(=O)c1cc2c(cn1)[nH]c1ccccc12 [CMA, β-carboline-3-carboxylic acid N-methylamide] the Kd was 119 µM.
